Results: PubChem BioAssay AID1963985 (Molecular Pharmacology Branch, DTP, NCI, 2024)

Tested on: 252836-082-R-J2-PDC tumor spheroids, viability
Assay: Anticancer human tumor 252836-082-R-J2-PDC patient-derived head and neck squamous cell carcinoma cell line growth inhibition [PI3K]
Conditions: spheroids with HUVEC and MSC; for IC50: curve of first compound; for viability, T/C: stronger effect = lower value; active = viability on the fitted dose curve at most 10% of control; inactive = the rest
In short: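 Targeted small molecules plus PI3K inhibitors, half-log dose series from Cmax (default top 10 microM), were applied to heterotypic spheroids of cancer cells with HUVEC and MSCs. Viability indicated growth inhibition.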

[1] = second compound 0.00316 µM, first compound 0.0316 µM
[2] = second compound 0.00316 µM, first compound 0.1 µM
[3] = second compound 0.00316 µM, first compound 0.316 µM
[4] = second compound 0.00316 µM, first compound 1 µM
[5] = second compound 0.00316 µM, first compound 3.16 µM
[6] = second compound 0.00316 µM, first compound 10 µM
[7] = second compound 0.01 µM, first compound 0.0316 µM
[8] = second compound 0.01 µM, first compound 0.1 µM
[9] = second compound 0.01 µM, first compound 0.316 µM
[10] = second compound 0.01 µM, first compound 1 µM
[11] = second compound 0.01 µM, first compound 3.16 µM
[12] = second compound 0.01 µM, first compound 10 µM
[13] = second compound 0.0316 µM, first compound 0.0316 µM
[14] = second compound 0.0316 µM, first compound 0.1 µM
[15] = second compound 0.0316 µM, first compound 0.316 µM
[16] = second compound 0.0316 µM, first compound 1 µM
[17] = second compound 0.0316 µM, first compound 3.16 µM
[18] = second compound 0.0316 µM, first compound 10 µM
[19] = second compound 0.1 µM, first compound 0.0316 µM
[20] = second compound 0.1 µM, first compound 0.1 µM
[21] = second compound 0.1 µM, first compound 0.316 µM
[22] = second compound 0.1 µM, first compound 1 µM
[23] = second compound 0.1 µM, first compound 3.16 µM
[24] = second compound 0.1 µM, first compound 10 µM
[25] = second compound 0.316 µM, first compound 0.0316 µM
[26] = second compound 0.316 µM, first compound 0.1 µM
[27] = second compound 0.316 µM, first compound 0.316 µM
[28] = second compound 0.316 µM, first compound 1 µM
[29] = second compound 0.316 µM, first compound 3.16 µM
[30] = second compound 0.316 µM, first compound 10 µM
[31] = second compound 1 µM, first compound 0.0316 µM
[32] = second compound 1 µM, first compound 0.1 µM
[33] = second compound 1 µM, first compound 0.316 µM
[34] = second compound 1 µM, first compound 1 µM
[35] = second compound 1 µM, first compound 3.16 µM
[36] = second compound 1 µM, first compound 10 µM
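Also: spheroids exposed to agents for seven days before readout.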
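For viability, T/C in this document: percent of vehicle DMSO control viability so 100% = untreated growth.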

Cn1ncc(Cl)c1-c1cc(C(=O)NC(CN)Cc2cccc(F)c2)sc1Cl (stereo unspecified) + COc1c(OCCCN2CCOCC2)ccc2c3n(c(=NC(=O)c4cnc(N)nc4)nc12)CCN3
inactive: viability, T/C [1] 88.6% | viability, T/C [2] 79.1% | viability, T/C [3] 60.2% | viability, T/C [4] 45.7% | viability, T/C [5] 32.3% | viability, T/C [6] 11.2% | viability, T/C [7] 71.8% | viability, T/C [8] 67.8% | viability, T/C [9] 50.6% | viability, T/C [10] 40.1% | viability, T/C [11] 29% | viability, T/C [12] 18.4% | viability, T/C [13] 59.1% | viability, T/C [14] 68.6% | viability, T/C [15] 50% | viability, T/C [16] 34.5% | viability, T/C [17] 23.1% | viability, T/C [18] 11.7% | viability, T/C [19] 40.8% | viability, T/C [20] 36.4% | viability, T/C [21] 37% | viability, T/C [22] 26.4% | viability, T/C [23] 17.2% | viability, T/C [25] 21.1% | viability, T/C [26] 13.9% | viability, T/C [27] 14.8% | viability, T/C [28] 14.2% | viability, T/C [29] 13%
< 0.0316 µM: IC50 (second compound 0.1 µM) | IC50 (second compound 0.316 µM) | IC50 (second compound 1 µM)
active: viability, T/C [24] 9.98% | viability, T/C [30] 7.08% | viability, T/C [31] 4.42% | viability, T/C [32] 4.98% | viability, T/C [33] 4.84% | viability, T/C [34] 6.71% | viability, T/C [35] 4.88% | viability, T/C [36] 1.6%
0.376 µM: IC50 (second compound 0.0316 µM)
0.781 µM: IC50 (second compound 0.00316 µM)
0.416 µM: IC50 (second compound 0.01 µM)

CC1(C)CCC(CN2CCN(c3ccc(C(=O)NS(=O)(=O)c4ccc(NCC5CCOCC5)c([N+](=O)[O-])c4)c(Oc4cnc5[nH]ccc5c4)c3)CC2)=C(c2ccc(Cl)cc2)C1 + CC(Nc1ccc2c(c1)OCCn1cc(N3C(=O)OCC3C(F)F)nc1-2)C(N)=O
active: viability, T/C [6] 6.79% | viability, T/C [18] 5.56% | viability, T/C [24] 4.08% | viability, T/C [30] 6.25%
5.66 µM: IC50 (second compound 0.00316 µM)
< 0.0316 µM: IC50 (second compound 1 µM)
3.92 µM: IC50 (second compound 0.1 µM)
5.49 µM: IC50 (second compound 0.01 µM)
5 µM: IC50 (second compound 0.0316 µM)
inactive: viability, T/C [1] 95.4% | viability, T/C [2] 81.6% | viability, T/C [3] 93.3% | viability, T/C [4] 101% | viability, T/C [5] 99% | viability, T/C [7] 98.6% | viability, T/C [8] 87% | viability, T/C [9] 90.1% | viability, T/C [10] 90.9% | viability, T/C [11] 84.7% | viability, T/C [12] 12.2% | viability, T/C [13] 77.6% | viability, T/C [14] 83.8% | viability, T/C [15] 76.5% | viability, T/C [16] 68.9% | viability, T/C [17] 90.1% | viability, T/C [19] 78.7% | viability, T/C [20] 64.9% | viability, T/C [21] 66.1% | viability, T/C [22] 73% | viability, T/C [23] 59.8% | viability, T/C [25] 70.8% | viability, T/C [26] 55.3% | viability, T/C [27] 54.3% | viability, T/C [28] 56.4% | viability, T/C [29] 54.3% | viability, T/C [31] 47.5% | viability, T/C [32] 49.6% | viability, T/C [33] 49.7% | viability, T/C [34] 47.9% | viability, T/C [35] 39.7% | viability, T/C [36] 15.7%
3.46 µM: IC50 (second compound 0.316 µM)

Cn1nccc1Nc1nccc(-c2ccn(C(CO)c3ccc(Cl)c(F)c3)c(=O)c2)n1 (stereo unspecified) + CC(Nc1ncnc2nc[nH]c12)c1cc2cccc(Cl)c2c(=O)n1-c1ccccc1
> 10 µM: IC50 (second compound 0.0316 µM) | IC50 (second compound 0.1 µM) | IC50 (second compound 0.316 µM) | IC50 (second compound 1 µM) | IC50 (second compound 3.16 µM)
inactive: viability, T/C [13] 83.3% | viability, T/C [14] 99.5% | viability, T/C [15] 91.9% | viability, T/C [16] 99.6% | viability, T/C [17] 93.3% | viability, T/C [18] 66.2% | viability, T/C [19] 100% | viability, T/C [20] 94.8% | viability, T/C [21] 91.3% | viability, T/C [22] 95.9% | viability, T/C [23] 95.9% | viability, T/C [24] 67.2% | viability, T/C [25] 97.2% | viability, T/C [26] 94.5% | viability, T/C [27] 93.7% | viability, T/C [28] 81.1% | viability, T/C [29] 91.9% | viability, T/C [30] 76% | viability, T/C [31] 75.4% | viability, T/C [32] 82.3% | viability, T/C [33] 91.3% | viability, T/C [34] 92.6% | viability, T/C [35] 81.5% | viability, T/C [36] 56.5% | viability, T/C (second compound 3.16 µM, first compound 0.0316 µM) 72.4% | viability, T/C (second compound 3.16 µM, first compound 0.1 µM) 86.2% | viability, T/C (second compound 3.16 µM, first compound 0.316 µM) 77.5% | viability, T/C (second compound 3.16 µM, first compound 1 µM) 80.5% | viability, T/C (second compound 3.16 µM, first compound 3.16 µM) 80.9% | viability, T/C (second compound 3.16 µM, first compound 10 µM) 52.9% | viability, T/C (second compound 10 µM, first compound 0.0316 µM) 62% | viability, T/C (second compound 10 µM, first compound 0.1 µM) 64.8% | viability, T/C (second compound 10 µM, first compound 0.316 µM) 78.9% | viability, T/C (second compound 10 µM, first compound 1 µM) 73.4% | viability, T/C (second compound 10 µM, first compound 3.16 µM) 62.4% | viability, T/C (second compound 10 µM, first compound 10 µM) 41.8%
6.58 µM: IC50 (second compound 10 µM)
